Results on 2 compounds are retold here after patent US6897298B2, “Method for extracting a compound from a ginseng spp. plant, ginseng or pseudo-ginseng” (priority 2001, dated 2005).

Like-named read-outs stand apart in the source and are kept apart here.

In data set [1] the test system is cerebral arteria embolisms/reperfusion injury rat model. Briefly: Behavior change score (Longa method). It is filed as in vivo. Particulars: 5 hours after reperfusion. Here is the method:
(§1) Prepare cerebral arteria embolisms/reperfusion injury rat model according to Longna method. To bring the animal into a state of narcosis, give an intravenous injection of urethane (0.4 ml/100 g weight). Maintain body temperature of the rat at 37±0.5° C. (anal temperature). Let the rat lie on a plate with face toward the ceiling. Make a cut at the right middle of its neck. By means of microsurgery techniques, separate left neck communis and its branches. Isolate arteria carotis externa. By means of electric solidification, cut off occipital arteria, thyroid superia gland arteria, and arteria phyrynix externa, all of which are setting out from arteria carotis externa. Isolate arteria carotis externa further towards the head end. Tie the arteria carotis externa at a place as far as possible. Clamp the beginning part of the arteria carotis externa to make it close with an artery clamp. Tie a loose knot (with 5-0 silk thread going through the arteria carotis externa) at a place between the artery clamp and the tying thread. At a place close to the knot, cut to block the arteria carotis externa. Put into the arteria carotis externa a 3-0 nylon thread, which is 5 cm long and has a drumstick-like head. Tie a fast knot on the silk thread on the arteria crotis externa to avoid bleeding. Remove the arteria clamp. Push the nylon thread slowly into the arteria carotis externa. […]

The subject of data set [2] is cerebral ischemia/reperfusion injury rats. The data set is described as follows: MDA content in cerebral tissue homogenate (TBA method). The data set is classed as in vivo, rat. Conditions: Compound (I) 50 mg/kg, Nimodipine 40 μg/kg iv; 5 h after reperfusion; salt-water group 87.7±27.5; p>0.05 vs normal group.
The next data set can be described thus: Acute toxicity test. Particulars: in vivo, Mouse. From the text:
Results of acute toxicity test for Compound (I) were: […]

Data set [3] can be described thus: Physical and chemical properties: solubility. It is filed as physicochemical. Particulars: substance obtained in Example 1. Here is the method:
Physical and chemical property tests and element analysis were carried out for the substance. Also done were its mass spectra, infrared and ultraviolet spectrum, ^1H and ^13C nuclear magnetic resonance tests. The conditions and results were:
Physical and chemical properties: white or a little yellow powder. Melting point—209˜214° C.

Data set [4] relates to cerebral ischemia/reperfusion injury rats. The data set is described as follows: SOD activity in cerebral tissue homogenate (pyrogallol self-oxidation method). Particulars: Compound (I) 50 mg/kg, Nimodipine 40 μg/kg iv; 5 h after reperfusion; normal 70.30±24.7 u/g, salt-water 46.7±16.6 u/g. It is filed as in vivo, rat. How it is done: 38 rats were used. After making cerebral ischemia/reperfusion injury, the rats were randomly divided into groups of contrast (equal volume of physiological salt-water), Nimodipine treatment (40 μg/kg), and Compound (I) treatment (50 mg/kg). […] After another 5 minutes, drug was given iv under tongue. 60 minutes after cerebral ischemia was made, reperfusion was made. After another 5 hours, rat brains were stripped off rapidly according to Gotoh Method. Right and left brain hemispheres were weighed respectively, and were kept in fridge at −70° C.
The tissue to be measured (about 0.3˜0.5) were washed clean with physiological salt-water. Then cold distilled water was used to prepare homogenate on a glass blender. Then centrifugal machine was set at 1,500 rpm to work for 15 minutes, the temperature being 0° C. […]
(1) SOD measurement (pyrogallol self-oxidation method): Take a 15 ml test tube. […] Change of absorbance is measured under conditions of: ultra-violet spectrophotometer (UV 1601 PC, Shimatsu Co., Japan), wavelength of 325 nm, and slit of 2. Then activity units are calculated according to the following formula: Tissue homogenate SOD(u/g cerebral tissue)=(control tube−sample tube)/control tube/0.5×1/cerebral tissue weight (g)

A short description of data set [5]: Three kinds of experiments (disability, cancer, mutation). From the text:
Therefore, its cure effects are good.

For data set [6], the system named is cerebral arteria embolisms/reperfusion injury rat model. The data set is described as follows: Measurement of water content in brain tissue. Conditions: Compound (I) intravenous injection. The data set is classed as in vivo.
The test system is the same in data set [7]. The data set is described as follows: Scanning record of electroencephalogram after cerebral ischemia/reperfusion. The data set is classed as in vivo. Conditions: 1 h block. Here is the method: as §1, with “externa.” for “externa. Put into the arteria carotis externa a 3-0 nylon thread, which is 5 cm long and has a drumstick-like head. Tie a fast knot on the silk thread on the arteria crotis externa to avoid bleeding. Remove the arteria clamp. Push the nylon thread slowly into the arteria carotis externa.”
One needle-type electrode was placed at top forehead. […] Electroencephalogram change outside of skin before and after obstruction was recorded with 8-lead physiological recorder made by Japan Optical-Electric Co.

A further data set concerns Rats. Conditions: for toxicity finding: iv 14 days.
Data set [8] relates to cerebral arteria embolisms/reperfusion injury rat model. The data set is described as follows: Measurement of area of cerebral embolisms (TTC staining) after cerebral ischemia/reperfusion. The data set is classed as in vivo. How it is done: as §1, with “thread.” for “thread. At a place close to the knot, cut to block the arteria carotis externa. Put into the arteria carotis externa a 3-0 nylon thread, which is 5 cm long and has a drumstick-like head. Tie a fast knot on the silk thread on the arteria crotis externa to avoid bleeding. Remove the arteria clamp. Push the nylon thread slowly into the arteria carotis externa.”
Open the cranium and take the whole brain. […] The area of obstructed cerebral tissue was measured with a fully automatic image analysis system (Model IPAS-C, Kontror Co, Germany). […] For this experiment, the average value of those measured of slices 2 and 3 were taken as the measured result for each animal's area of obstruction. […]

Data set [9] shares this test system. Briefly: Pathological exam of nerve cells and nerve fibers (HE, myelin staining). It is filed as in vivo. Particulars: iv 50 mg/kg, 10 mg/kg and 2 mg/kg; dosage-dependent. How it is done:
as §1

Regarding `COCCOC(=O)C1=C(C)NC(C)=C(C(=O)OC(C)C)C1c1cccc([N+](=O)[O-])c1` (stereo not shown) [Nimodipine, reference compound], the “behavior scores (0-5)” value in [1] (salt-water contrast group 3.3±1.0, p>0.05) worked out at 2.9±1.2 scores. Also, the MDA content in [2] came to 67.0±21.8 nmol/mg tissue weight.

As for `CC(C)=CCC[C@](C)(OCC1OC(CO)C(O)C(O)C1O)C1CC[C@]2(C)C1[C@H](O)CC1[C@@]3(C)CC[C@H](OC4OC(CO)C(O)C(O)C4OC4OC(CO)C(O)C(O)C4O)C(C)(C)C3CC[C@]12C` (stereo partly drawn) [Compound (I), 20-(S)-protopanaxadiol-3-[O-β-D-glucopyranosyl (1→2)-β-D-glucopyranosyl]-20-O-β-D-glucopyranoside], the median lethal dose (LD50) in “Acute toxicity test” (im, intramuscular injection, 95% confidence margin 564.77˜603.79 mg/kg) was determined as 584 mg/kg; in “Acute toxicity test” (intravenous injection, 95% confidence margin 346.01˜366.64 mg/kg) it was 356 mg/kg. Further, the “behavior obstruction caused by cerebral injuries” value in [1] is recorded as “could be significantly relieved”. Also, in data set [3], the solubility result is “Very easy to dissolve in lower alcohol, acetone, chloroform, and hot water”. Besides, the “SOD activity compared with normal contrast group (false surgery)” value in data set [4] is “no significant statistics difference”. In addition, the “causes disability, cancer, and mutation” value in [5] was “does not have these side effects”. Further, the “water content increase of cerebral tissue in blocked area” value in [6] was “could significantly lower water content increase of cerebral tissue in blocked area”. Besides, the amplitude of electroencephalogram result in data set [7] (2 mg/kg dosage, 5 h after reperfusion) was “tendency of improvement of electroencephalogram, but there was no significant statistics difference”; in data set [7] (50 mg/kg and 10 mg/kg, 5 h after reperfusion (p<0.01)), “could improve electroencephalogram significantly”. Further, in data set [2], the MDA content was determined as 65.8±19 nmol/mg tissue weight. The toxicity finding entry is “poisonous dosage” in the data set on Rats (100 mg/kg); “minor local stimulation” in the data set with Rats (10 and 30 mg/kg). The main toxic finding entry in the data set with Rats (iv injection for 14 days, injury correlated positively with dosage) is “inflammation of tail vein inner membrane”. Also, the “embolism (infarction) area of cerebral tissue” value in data set [8] (Compound (I) 2˜50 mg/kg iv, 1 h ischemia, 5 h after reperfusion, dosage dependent) was “could decrease embolism area of cerebellum tissue”. Also, the “cure effects compared with Nimodipine” value in data set [8] (iv 50, 10 and 2 mg/kg, overall conclusion over all indexes) was “better than that of active contrast drug Nimodipine”. The “degree of denaturalization of nerve fibers” value in [9] is recorded as “could relieve the degree of denaturalization of nerve fibers”. Further, the “number of nerve cells of necrosis” value in [9] is given as “could decrease the number of nerve cells of necrosis”.

By LD50 is commonly meant the dose at which mortality reaches 50%.
